# Measured values taken from patent publication US10613180B2, “Methods and systems of assessing tissue vascular permeability using non-labeled dextran” (priority 2014, dated 2020).
# What was measured:
# tumor = assay: In vivo and ex vivo fluorescence imaging and immunohistochemistry with dextran-FITC; parameters: species or system mice; conditions: after TNF-α
# Description: The changes of mean ROI CEST contrast of tumor and kidney are plotted on the right. […] The dextran can be also imaged by its conjugated fluorescein (FITC).
# CT26 colon tumors = assay: In vivo CEST MRI of 150 kD dextran uptake before and after TNF-α; parameters: species or system mice; conditions: TNF-α 1 μg per mouse, one hour after 150 kD dextran
# Description: For dextran of 150 kD, a slightly different protocol was used (FIG. 3a). […] One hour later, TNF-α (1 μg per mouse) was injected. The CEST MRI was acquired using a series of z spectral imaging acquisition (from −3 ppm to +3 ppm, step=0.2 ppm). Each acquisition took ˜16 minutes. For all the studies, a fat-suppressed RARE sequence with a continuous wave pre-saturation pulse B1=1.8 μT and 3 seconds (TR/TE=5000/5 ms, RARE factor=10)^2 was used. Data were processed using custom-written MATLAB scripts. After correcting for B0 inhomogeneity using the WASSR method, the in vivo CEST contrast was quantified by averaging the MTRasym=(S^−Δω−S^+Δω)/S0 from 0.8 to 1.2 ppm.^2
substance,measurement,setting,value
TNF-α,dextran uptake in tumors by fluorescence imaging and immunohistochemistry,tumor,marked increased dextran uptake in tumors
same,effect of TNF-α on dextran accumulation in tumor and kidney,CT26 colon tumors,increased vascular permeability
